Reference: publication PMC12385147, “Discovery of Novel 2-Substituted Aniline Pyrimidine Based Derivatives as Potent Mer/c-Met Dual Inhibitors with Improvement Bioavailability” (Biomolecules, 2025)
Where two headings read alike, the source gives them in different places.

Assays:
Mer kinase = target: T1, Mer kinase (Homo sapiens, UniProt Q12866); assay: Mer kinase inhibition assay (TK-Sub-Biotin / cryptate detection); assay type: biochemical; details: means from three independent experiments
T1 construct: purchased Invitrogen (Shanghai, China)
T1 sequence (Q12866 21-999): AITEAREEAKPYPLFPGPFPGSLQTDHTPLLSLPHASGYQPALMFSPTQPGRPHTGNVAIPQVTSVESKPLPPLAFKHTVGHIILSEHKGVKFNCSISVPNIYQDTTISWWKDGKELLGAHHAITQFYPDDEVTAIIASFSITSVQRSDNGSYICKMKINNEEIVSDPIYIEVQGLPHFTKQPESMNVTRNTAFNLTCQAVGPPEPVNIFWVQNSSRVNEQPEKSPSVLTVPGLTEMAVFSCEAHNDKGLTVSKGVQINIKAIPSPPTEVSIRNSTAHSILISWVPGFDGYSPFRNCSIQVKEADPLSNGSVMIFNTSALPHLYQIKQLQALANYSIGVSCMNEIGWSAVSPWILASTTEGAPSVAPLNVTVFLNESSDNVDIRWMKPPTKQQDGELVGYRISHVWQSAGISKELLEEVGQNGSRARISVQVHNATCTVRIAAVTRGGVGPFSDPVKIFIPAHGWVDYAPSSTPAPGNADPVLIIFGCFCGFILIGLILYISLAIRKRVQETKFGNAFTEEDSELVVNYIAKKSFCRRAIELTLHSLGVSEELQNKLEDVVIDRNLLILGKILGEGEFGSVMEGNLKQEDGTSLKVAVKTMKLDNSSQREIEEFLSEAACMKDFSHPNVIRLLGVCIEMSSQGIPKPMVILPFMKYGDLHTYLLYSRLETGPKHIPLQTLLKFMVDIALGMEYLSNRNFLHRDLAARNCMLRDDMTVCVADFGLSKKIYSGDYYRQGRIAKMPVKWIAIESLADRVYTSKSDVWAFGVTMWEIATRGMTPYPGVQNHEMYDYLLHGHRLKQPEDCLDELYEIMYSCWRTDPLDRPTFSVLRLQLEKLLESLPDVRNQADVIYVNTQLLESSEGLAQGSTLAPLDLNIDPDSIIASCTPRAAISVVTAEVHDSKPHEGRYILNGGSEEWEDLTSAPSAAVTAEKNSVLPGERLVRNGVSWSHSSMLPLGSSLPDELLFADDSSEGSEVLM

[1] = Liver microsome stability assay; assay type: in vitro ADME, human
MDA-MB-231 = assay: Antiproliferation CCK-8 assay, MDA-MB-231; assay type: cell-based; details: Homo sapiens, CCK-8, 72 h
Method: (§1) The HepG2, MDA-MB-231, and HCT116 cell lines were derived from our own laboratory (the laboratory of our collaborator, Dr. Xiaolei Zhou, at College of Food Science and Biology in Hebei University of Science and Technology). The antiproliferative activities were assessed using the CCK-8 assay. Cell viability was measured according to the manufacturer’s instructions for the Cell Counting Kit-8 (Meilunbio, Dalian, China). In this assay, 2.5 × 10^3 cells per well were seeded into 96-well plates.
(§2) After an initial 12 h incubation, cancer cells were exposed to varying concentrations of compound 17c for 72 h. Following CCK-8 solution addition and 2 h incubation, the absorbance at 450 nm was measured using a BioTek Synergy HTX microplate reader. Experiments included triplicate wells with three independent replicates. The IC50 values for compound 17c were derived from an analysis of the dose–response curves in GraphPad PRISM 9.5.

HCT116 = assay: Antiproliferation CCK-8 assay, HCT116; assay type: cell-based; details: for IC50: Homo sapiens, HCT-116
Method: as §1, §2

CAKI-1 renal cancer = assay: Antiproliferation CCK-8 assay, CAKI-1; assay type: cell-based
[2] = Plasma protein binding, equilibrium dialysis, rat plasma; assay type: in vitro ADME
[3] = Pharmacokinetics in SD rats; assay type: in vivo; details: rat; for MRT inf: read-out: MRTINF_obs
Method: Male and female SD rats (SLRC Laboratory Animal Inc., Shanghai, China) were used for the study. In the oral (PO) administration, 3 rats per group were given a single 10 mg/kg dose. Blood samples (100 μL per time point) were collected via jugular vein cannula and taken at 5, 15, and 30 min, and 1, 2, 4, 8, and 24 h post-dose. For the intravenous (IV) administration, 3 rats per group received 2.0 mg/kg, and blood samples were collected at 5, 15, and 30 min, and 1, 2, and 4 h after dosing. Rats were fasted overnight prior to dosing and remained fasted for 6 h post-dose. Plasma was separated by centrifugation and stored at –40 °C until analysis. Compound concentrations were determined by LC/MS/MS (Shimadzu LC-30AD), and pharmacokinetic parameters, including Cmax, Tmax, T1/2, and AUC0-inf, were calculated.

HCT116 cells [4] = assay: TUNEL apoptosis assay in HCT116 cells; assay type: cell-based; details: 48 h
Method: Apoptosis was analyzed in a dose-dependent manner using the One Step TUNEL Apoptosis Assay Kit (Meilunbio, Dalian, China). HCT116 cells (1.5 × 10^4 cells/well) were seeded onto TC-treated glass coverslips in 24-well plates and incubated for 24 h. Following this, the cells were exposed to varying concentrations of compound 17c for 48 h. After treatment, the cells were fixed with 4% paraformaldehyde and permeabilized with 0.3% Triton-X-100. TUNEL staining was performed as per the manufacturer’s guidelines, with DAPI used for nuclear counterstaining. Fluorescent images were obtained using an Olympus microscope. The ED50 value for compound 17c was calculated using GraphPad PRISM 9.5. Each assay was performed in triplicate and repeated three times for consistency.

HCT116 cells [5] = assay: Transwell migration assay of HCT116 cells; assay type: cell-based; details: 24 h
Method: Migration assays were conducted using Transwell® inserts (Costar, Cambridge, MA, USA) with an 8 μm pore size polycarbonate membrane. HCT116 cells (1.5 × 10^5) were seeded into the upper chamber with serum-free medium containing 0.2% BSA, while the lower chamber contained medium supplemented with 15% FBS. Compound 17c was applied at the specified concentrations to both sides of the membrane. After 24 h of incubation at 37 °C, the cells were fixed in methanol and stained with 0.1% crystal violet. Non-migrated cells on the upper surface of the membrane were removed using a cotton swab. Five random fields per well were imaged under brightfield microscopy, and the number of migrated cells was quantified using ImageJ software (1.53c). Each experiment was performed in triplicate.

hERG potassium channel = hERG potassium channel (Homo sapiens, UniProt Q12809); assay: hERG potassium channel QPatch automated patch clamp in CHO cells
hERG potassium channel, sequence (Q12809 whole entry): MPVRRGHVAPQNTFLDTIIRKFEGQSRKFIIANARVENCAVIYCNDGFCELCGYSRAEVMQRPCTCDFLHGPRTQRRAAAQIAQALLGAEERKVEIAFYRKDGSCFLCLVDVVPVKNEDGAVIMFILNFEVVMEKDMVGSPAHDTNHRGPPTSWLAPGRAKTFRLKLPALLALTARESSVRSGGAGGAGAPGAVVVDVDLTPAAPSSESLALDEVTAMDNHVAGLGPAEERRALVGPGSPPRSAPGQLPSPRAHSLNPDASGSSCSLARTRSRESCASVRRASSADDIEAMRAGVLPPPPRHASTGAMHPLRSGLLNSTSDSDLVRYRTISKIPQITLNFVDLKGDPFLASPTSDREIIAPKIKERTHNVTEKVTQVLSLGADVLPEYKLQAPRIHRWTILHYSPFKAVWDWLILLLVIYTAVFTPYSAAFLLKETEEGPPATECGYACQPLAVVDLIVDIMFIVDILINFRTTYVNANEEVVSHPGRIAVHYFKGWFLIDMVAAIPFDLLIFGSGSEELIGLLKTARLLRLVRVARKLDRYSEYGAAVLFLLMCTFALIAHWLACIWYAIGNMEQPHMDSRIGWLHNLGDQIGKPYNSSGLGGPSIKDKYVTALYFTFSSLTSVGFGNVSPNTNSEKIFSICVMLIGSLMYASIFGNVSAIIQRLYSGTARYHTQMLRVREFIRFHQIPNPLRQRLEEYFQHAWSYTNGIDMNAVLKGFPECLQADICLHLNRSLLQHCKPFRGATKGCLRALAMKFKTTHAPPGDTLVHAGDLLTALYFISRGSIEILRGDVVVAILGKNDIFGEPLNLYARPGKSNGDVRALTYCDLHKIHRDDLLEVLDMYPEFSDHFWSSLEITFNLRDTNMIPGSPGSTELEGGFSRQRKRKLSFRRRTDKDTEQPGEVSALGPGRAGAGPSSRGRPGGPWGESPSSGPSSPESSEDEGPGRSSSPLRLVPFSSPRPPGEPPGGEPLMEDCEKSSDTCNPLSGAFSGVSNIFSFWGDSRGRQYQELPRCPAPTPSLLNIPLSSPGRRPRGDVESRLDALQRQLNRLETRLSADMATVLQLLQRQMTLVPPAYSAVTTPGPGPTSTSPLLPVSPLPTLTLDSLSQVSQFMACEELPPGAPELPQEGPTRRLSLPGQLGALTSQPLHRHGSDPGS

[6] = both sexes, plasma, iv, SD rats, 2 mg/kg
[7] = both sexes, plasma, po, SD rats, 10 mg/kg

Cc1c(C(=O)Nc2ccc(Oc3ccnc(Nc4cccc(OC5CCN(C)CC5)c4)n3)cc2)c(=O)n(-c2ccccc2)n1C [compound 17c, 1,5-dimethyl-N-(4-((2-((3-((1-methylpiperidin-4-yl)oxy)phenyl)amino)pyrimidin-4-yl)oxy)phenyl)-3-oxo-2-phenyl-2,3-dihydro-1H-pyrazole-4-carboxamide]
IC50 (Mer kinase): 6.4 ± 1.8 nM | CL (intrinsic clearance) ([1]; human liver microsomes): 23.6 µL/min/mg | microsomal CLint ([1]; human, liver microsomes, pH 7.4, human liver microsomes, read-out: CL (intrinsic clearance)): 26 µL/min/mg | IC50 (MDA-MB-231): 2310 ± 670 nM | fold improvement over cabozantinib (HCT116; HCT116 cells): 17.1 fold | IC50 (HCT116; CCK-8, 72 h, read-out: IC50 HCT116): 3790 ± 1090 nM | IC50 (HCT116; CCK-8, read-out: IC50 HCT116 cells): 460 ± 60 nM | fold enhancement compared to cabozantinib (CAKI-1 renal cancer; CAKI-1 cells): 2.0 fold | IC50 (CAKI-1 renal cancer; Homo sapiens, CAKI-1, CCK-8, read-out: IC50 CAKI-1 cells): 2310 ± 670 nM | Mean Fb ([2]; 1 μM): 98.2% | Stability (%) ([2]; 1 μM, 6 h at 37 °C): 102.2% | fraction unbound at 6 h, 1 μM ([2]; fraction, read-out: Mean Fu): 0.0178 | AUC(0-t) [3, 6]: 2150 ng·h/mL | half-life [3, 6]: 3.33 h | clearance ([3]; both sexes, plasma, iv, SD rats, i.v., 2 mg/kg, read-out: CL_obs): 16.4 mL/min/kg | MRT inf ([3]; both sexes, plasma, iv, SD rats, i.v., 2 mg/kg): 3.23 h | bioavailability ([3]; both sexes, plasma, oral, SD rats, p.o. 10 mg/kg vs i.v. 2 mg/kg, read-out: F (oral bioavailability)): 45.3% | AUC(0-t) [3, 7]: 4630 ng·h/mL | Cmax [3, 7]: 740 ng/mL | Tmax [3, 7]: 4 h | half-life [3, 7]: 3.46 h | MRT inf ([3]; both sexes, plasma, po, SD rats, p.o., 10 mg/kg): 6.52 h | oral bioavailability, fold higher than 18c ([3]; in vivo, po): 16 fold | ED50 apoptosis (TUNEL-positive cells) (HCT116 cells [4]): 2036 nM | inhibition of HCT116 cell migration (HCT116 cells [5]): effectively inhibits the migration capacity | IC50 (hERG potassium channel): > 40000 nM
